Where two headings read alike, the source gives them in different places. Values belong to the compound of their own block, whether it stands above or below them.
Assays:
[1] = Metabolisation in liver microsomes (mini pig); assay type: in vitro ADME; settings: for Percent of compound metabolized: 10 μM, 90 minutes incubation; for Ratio of percent metabolized, Example/Pantoprazole: 90 minutes
Description: (§1) Pantoprazole or examples 1 or 2 (10 μM each) were incubated with liver microsomes (source: all from GenTest except Mini Pig from TEBU),incubation in 1 mg/ml protein, 100 mM Tris-HCl, pH 7.4, 1 mM NADPH2). Reaction was terminated after 90 minutes by liquid nitrogen, the parent compound was detected by HPLC (10 mM KH2PO4, pH 7.4, acetonitril gradient 20-44%).

[2] = Metabolisation in liver microsomes (dog); assay type: in vitro ADME; settings: for Percent of compound metabolized: 10 μM, 90 minutes incubation; for Ratio of percent metabolized, Example/Pantoprazole: 90 minutes
Description: as §1

[3] = Metabolisation in liver microsomes (mouse); assay type: in vitro ADME; settings: for Percent of compound metabolized: 10 μM, 90 minutes incubation; for Ratio of percent metabolized, Example/Pantoprazole: 90 minutes
Description: as §1

[4] = Metabolisation in liver microsomes (human); assay type: in vitro ADME; settings: for Percent of compound metabolized: 10 μM, 90 minutes incubation; for Ratio of percent metabolized, Example/Pantoprazole: 90 minutes
Description: as §1

[5] = Metabolisation in liver microsomes (rat); assay type: in vitro ADME; settings: for Percent of compound metabolized: 10 μM, 90 minutes incubation; for Ratio of percent metabolized, Example/Pantoprazole: 90 minutes
Description: as §1

[6] = Metabolisation in liver microsomes (guinea pig); assay type: in vitro ADME; settings: Guinee pig liver microsomes; for Percent of compound metabolized: 10 μM, 90 minutes incubation; for Ratio of percent metabolized, Example/Pantoprazole: 90 minutes
Description: as §1

[7] = Metabolisation in liver microsomes (monkey); assay type: in vitro ADME; settings: for Percent of compound metabolized: 10 μM, 90 minutes incubation; for Ratio of percent metabolized, Example/Pantoprazole: 90 minutes
Description: as §1

[8] = in vitro; settings: human, hepatocytes
Description: (§3) Following the evaluation of the metabolic clearance of the compounds according to the invention via P450 enzymes, the formation kinetics of the main metabolite identified in humans, i.e. M2 (5-(difluoromethoxy)-2-[[(3-methoxy-4-sulfate-2-pyridyl)-methyl]sulfinyl]-1H-benzimidazole) was determined. Because the generation of M2 involves the oxidation of the 4-methoxy-pyridyl group by CYP2C19 and subsequent conjugation with 3′-phosphoadenosine-5′-phosphosulfate (PAPS) by an unidentified sulphotransferase, human cryopreserved hepatocytes were used since both phase I and phase II enzymes are functional in this in vitro system.
(§4) M2 formation rate under these conditions was linear up to 60 min. The M2 formation rate was determined at nine different compound concentrations (0, 0.5, 1.0, 2.5, 5.0, 10.0, 25.0, 50.0 and 100 μMol/L) incubated in duplicate for 60 min at 37° C. M2 was quantified using LC-MS/MS. M2 isolated from human urine was used as an external standard. The concentration to reach the half-maximal formation rate (KM-value) and the maximal formation rate (Vmax) were obtained by non-linear regression analysis using the Michaelis-Menten equation. The intrinsic clearance (Clint) was obtained dividing Vmax over KM.

[9] = test system: human cryopreserved hepatocytes
Description: as §3, §4

[10] = test system: human cryopreserved hepatocytes; experiment: in vitro; settings: for % Σ Clint rac. Omeprazole: hepatocytes
Description: (§2) 5-hydroxy-omeprazole was quantified using LC-MS/MS.

[11] = in vitro; settings: human, hepatocytes; remark: listed apart in the source
Description: as §2

[12] = Table 2, relative to rac. pantoprazole
[13] = Table 3, pooled human hepatocytes, M2 formation, Vmax over KM
[14] = Table 3, relative to rac. pantoprazole

Compound: [2H]C([2H])([2H])Oc1ccnc(C[S+]([O-])c2nc3cc(OC(F)F)ccc3[nH]2)c1OC (racemic) [Example 1, (R/S)-5-Difluoromethoxy-2-[(3-methoxy-4-trideuteriomethoxy-2-pyridinyl)methylsulfinyl]-1H-benzimidazole]
Percent of compound metabolized [1]: 19%
Ratio of percent metabolized, Example/Pantoprazole [1]: 0.73
Percent of compound metabolized [2]: 12%
Ratio of percent metabolized, Example/Pantoprazole [2]: 0.60
Percent of compound metabolized [3]: 36%
Ratio of percent metabolized, Example/Pantoprazole [3]: 0.58
Percent of compound metabolized [4]: 14%
Ratio of percent metabolized, Example/Pantoprazole [4]: 0.50
Percent of compound metabolized [5]: 35%
Ratio of percent metabolized, Example/Pantoprazole [5]: 0.57
Percent of compound metabolized [6]: 59%
Ratio of percent metabolized, Example/Pantoprazole [6]: 0.75
Percent of compound metabolized [7]: 47%
Ratio of percent metabolized, Example/Pantoprazole [7]: 0.64

hepatocyte CLint [8]: 22 µL/min/1e6 cells
Substrate concentrations at which formation of M2 appeared to be inhibited ([9]; human, 60 min): above 100 μM
% Σ Clint rac. Pantoprazole ([9]; human, hepatocytes): 79%
% Σ Clint rac. pantoprazole ([9]; human, hepatocytes): 79%
Intrinsic clearance (Clint) ([9]; human, hepatocytes): 22.0 μl/min/10^6 cells
Compound: [2H]C([2H])([2H])Oc1c(OC)ccnc1C[S+]([O-])c1nc2cc(OC(F)F)ccc2[nH]1 (racemic) [Example 22, rac-5-Difluoromethoxy-2-[(4-methoxy-3-trideuteriomethoxy-2-pyridinyl)methylsulfinyl]-1H-benzimidazole]

Compound: O.[2H]C([2H])Oc1ccnc(C[S+]([O-])c2nc3cc(OC(F)F)ccc3[nH]2)c1OC.[Na] (racemic) [Example 24, rac-5-Difluoromethoxy-2-[(3-methoxy-4-dideuteriomethoxy-2-pyridinyl)methylsulfinyl]-1H-benzimidazole sodium salt mono hydrate]
hepatocyte CLint [8]: 13.5 µL/min/1e6 cells
% Σ Clint rac. pantoprazole [9, 12]: 48%
Intrinsic clearance (Clint) [9, 13]: 13.5 μl/min/10^6 cells
% Σ Clint rac. Pantoprazole [9, 14]: 48%

Compound: O.[2H]COc1ccnc(C[S+]([O-])c2nc3cc(OC(F)F)ccc3[nH]2)c1OC.[Na] (racemic) [Example 25, rac-5-Difluoromethoxy-2-[(3-methoxy-4-monodeuteriomethoxy-2-pyridinyl)methylsulfinyl]-1H-benzimidazole sodium salt mono hydrate]
hepatocyte CLint [8]: 17.7 µL/min/1e6 cells
% Σ Clint rac. pantoprazole [9, 12]: 63%
Intrinsic clearance (Clint) [9, 13]: 17.7 μl/min/10^6 cells
% Σ Clint rac. Pantoprazole [9, 14]: 63%

Compound: O.[2H]C([2H])([2H])Oc1ccnc(C[S+]([O-])c2nc3cc(OC(F)F)ccc3[nH]2)c1OC.[Na] (racemic) [Example 32, rac-5-Difluoromethoxy-2-[(3-methoxy-4-trideuteriomethoxy-2-pyridinyl)methylsulfinyl]-1H-benzimidazole sodium salt mono hydrate]
hepatocyte CLint [8]: 5.1 µL/min/1e6 cells
% Σ Clint rac. Pantoprazole [9, 14]: 18%

Reduction in the 5-hydroxy-omeprazole formation rate [10]: not found
% Σ Clint rac. Omeprazole ([10]; human): 107%
hepatocyte CLint [11]: 2.1 µL/min/1e6 cells
Compound: [2H]C([2H])([2H])Oc1ccc2[nH]c([S+]([O-])Cc3ncc(C)c(OC)c3C)nc2c1 (racemic) [Example 46, rac-5-Trideuteriomethoxy-2-[(4-methoxy-3,5-dimethyl-2-pyridinyl)methylsulfinyl]-1H-benzimidazole]

5-hydroxy-omeprazole formation rate, reduction compared to non-deuterated omeprazole ([10]; human, 60 min): about 1.5 fold
% Σ Clint rac. Omeprazole ([10]; human): 69%
hepatocyte CLint [11]: 1.4 µL/min/1e6 cells
Compound: [2H]C([2H])([2H])Oc1ccc2[nH]c([S+]([O-])Cc3ncc(C)c(OC([2H])([2H])[2H])c3C)nc2c1 (racemic) [Example 47, rac-5-Trideuteriomethoxy-2-[(3,5-dimethyl-4-trideuteriomethoxy-2-pyridinyl)methylsulfinyl]-1H-benzimidazole]

5-hydroxy-omeprazole formation rate, reduction compared to non-deuterated omeprazole ([10]; human, 60 min): about 1.5 fold
% Σ Clint rac. Omeprazole ([10]; human): 69%
hepatocyte CLint [11]: 1.4 µL/min/1e6 cells
Compound: [2H]C([2H])([2H])Oc1c(C)cnc(C[S+]([O-])c2nc3cc(OC)ccc3[nH]2)c1C (racemic) [Example 48, rac-5-Methoxy-2-[(3,5-dimethyl-4-trideuteriomethoxy-2-pyridinyl)methylsulfinyl]-1H-benzimidazole]
Reduction in the 5-hydroxy-omeprazole formation rate ([10]; human, 60 min): Reduction in the 5-hydroxy-omeprazole formation rate was observed

Compound: COc1ccnc(C[S+]([O-])c2nc3ccc(OC(F)F)cc3[nH]2)c1OC (racemic) [rac. pantoprazole Na 1.5 H2O, 5-difluoromethoxy-2-[(3,4-dimethoxy-2-pyridinyl)methylsulphinyl]-1H-benzimidazole, reference compound]
hepatocyte CLint [8]: 27.9 µL/min/1e6 cells
% Σ Clint rac. Pantoprazole ([9]; human, hepatocytes): 100%
% Σ Clint rac. pantoprazole ([9]; human, hepatocytes): 100%
Intrinsic clearance (Clint) ([9]; human, hepatocytes): 27.9 μl/min/10^6 cells

% Σ Clint (R)-pantoprazole ([9]; human, hepatocytes): 100%
Intrinsic clearance (Clint) ([9]; human, hepatocytes): 25.7 μl/min/10^6 cells
Compound: COc1ccnc(C[S@@+]([O-])c2nc3cc(OC(F)F)ccc3[n-]2)c1OC.COc1ccnc(C[S@@+]([O-])c2nc3cc(OC(F)F)ccc3[n-]2)c1OC.O.O.O.[Na+].[Na+] [(R)-pantoprazole Na 1.5 H2O, reference compound]

% Σ Clint rac. Omeprazole ([10]; human): 37%
hepatocyte CLint [11]: 0.7 µL/min/1e6 cells
Compound: COc1ccc2nc([S@@+]([O-])Cc3ncc(C)c(OC)c3C)[nH]c2c1 [(S)-omeprazole sodium, (S)-5-methoxy-2-[(4-methoxy-3,5-dimethyl-2-pyridinyl)methylsulphinyl]-1H-benzimidazole, reference compound]

% Σ Clint (S)-pantoprazole ([9]; human, hepatocytes): 100%
Intrinsic clearance (Clint) ([9]; human, hepatocytes): 16.1 μl/min/10^6 cells
Compound: COc1ccnc(C[S@+]([O-])c2nc3cc(OC(F)F)ccc3[n-]2)c1OC.COc1ccnc(C[S@+]([O-])c2nc3cc(OC(F)F)ccc3[n-]2)c1OC.O.O.O.[Na+].[Na+] [(S)-pantoprazole Na 1.5 H2O, reference compound]

Percent of compound metabolized [1]: 19%
Ratio of percent metabolized, Example/Pantoprazole [1]: 0.73
Percent of compound metabolized [2]: 10%
Ratio of percent metabolized, Example/Pantoprazole [2]: 0.50
Percent of compound metabolized [3]: 17%
Ratio of percent metabolized, Example/Pantoprazole [3]: 0.27
Percent of compound metabolized [4]: 15%
Ratio of percent metabolized, Example/Pantoprazole [4]: 0.54
Percent of compound metabolized [5]: 17%
Ratio of percent metabolized, Example/Pantoprazole [5]: 0.28
Percent of compound metabolized [6]: 54%
Ratio of percent metabolized, Example/Pantoprazole [6]: 0.69
Percent of compound metabolized [7]: 35%
Ratio of percent metabolized, Example/Pantoprazole [7]: 0.48
Compound: [2H]C([2H])([2H])Oc1ccnc(C[S@+]([O-])c2nc3cc(OC(F)F)ccc3[nH]2)c1OC [Example 2, (S)(−)-5-Difluoromethoxy-2-[(3-methoxy-4-trideuteriomethoxy-2-pyridinyl)methylsulfinyl]-1H-benzimidazole]

% Σ Clint (S)-pantoprazole ([9]; Table 2, relative to (S)-pantoprazole): 21%
Compound: [2H]C([2H])([2H])Oc1ccnc(C[S@+]([O-])c2nc3cc(OC(F)F)ccc3[nH]2)c1OC [Example 5, Sodium (S)-{[5-(difluoromethoxy)]-2-[(3-methoxy-4-trideuteriomethoxy-2-pyridinyl)methylsulphinyl]-1H-benzimidazolide} hydrate]

Compound: O.O.O.[2H]C([2H])([2H])Oc1ccnc(C[S@@+]([O-])c2nc3cc(OC(F)F)ccc3[nH]2)c1OC.[Na] [Example 30, (R)-5-Difluoromethoxy-2-[(3-methoxy-4-trideuteriomethoxy-2-pyridinyl)methylsulfinyl]-1H-benzimidazole sodium salt trihydrate]
% Σ Clint (R)-pantoprazole ([9]; Table 2, relative to (R)-pantoprazole): 21%

hepatocyte CLint [8]: 3.4 µL/min/1e6 cells
% Σ Clint (S)-pantoprazole ([9]; Table 3, relative to (S)-pantoprazole): 21%
Compound: [2H]C([2H])([2H])Oc1ccnc(C[S@+]([O-])c2nc3cc(OC(F)F)ccc3[nH]2)c1OC.[Na] [Example 36, (S)-5-Difluoromethoxy-2-[(3-methoxy-4-trideuteriomethoxy-2-pyridinyl)methylsulfinyl]-1H-benzimidazole sodium salt]

Compound: [2H]C([2H])([2H])Oc1ccnc(C[S@@+]([O-])c2nc3cc(OC(F)F)ccc3[nH]2)c1OC.[Na] [Example 37, (R)-5-Difluoromethoxy-2-[(3-methoxy-4-trideuteriomethoxy-2-pyridinyl)methylsulfinyl]-1H-benzimidazole sodium salt]
hepatocyte CLint [8]: 5.5 µL/min/1e6 cells
% Σ Clint (R)-pantoprazole ([9]; Table 3, relative to (R)-pantoprazole): 21%

Compound: [2H]C([2H])([2H])Oc1ccc2[nH]c([S@@+]([O-])Cc3ncc(C)c(OC([2H])([2H])[2H])c3C)nc2c1.[Na] [Example 49, (S)-5-Trideuteriomethoxy-2-[(3,5-dimethyl-4-trideuteriomethoxy-2-pyridinyl)methylsulfinyl]-1H-benzimidazole sodium salt]
Change of intrinsic clearance (Clint) of 5-hydroxy-omeprazole [10]: did not alter the intrinsic clearance
% Σ Clint rac. Omeprazole ([10]; human): 40%
hepatocyte CLint [11]: 0.8 µL/min/1e6 cells

Compound: Sodium (R/S)-{[5-(difluoromethoxy)]-2-[(3-methoxy-4-trideuteriomethoxy-2-pyridinyl)methylsulphinyl]-1H-benzimidazolide} hydrate [Example 6]
Intrinsic clearance (Clint) ([9]; Table 2, pooled human hepatocytes, M2 formation, Vmax over KM): 5.1 μl/min/10^6 cells
% Σ Clint rac. pantoprazole [9, 12]: 20%
Effect of increasing number of [2H] atoms in the 4-methoxy-pyridyl position on M2 formation rates ([9]; series [1H], [2H1], [2H2], [2H3]): decreased M2 formation rates

Source: patent US7601737B2, “Isotopically substituted proton pump inhibitors” (priority 2005, dated 2009)
